From EPA's ToxValDB 9.5 (doi:10.2903/j.efsa.2010.1769)
Values after ≈ are worked out from the molar mass of the structure shown.

Legend:
Typhlodromus pyri = assay: LR50; higher = less toxic; conditions: not reported; mortality
Aphidius rhopalosiphi = assay: LR50; higher = less toxic; conditions: not reported; mortality
Danio rerio = conditions: acute; duration: 96 hours; mortality
Oncorhynchus mykiss = conditions: chronic/long-term; duration: 28 days
Canidae = conditions: chronic, duration: 1 years, oral, Dog Other
Apis mellifera = conditions: acute, mortality
Landoltia sp. = conditions: acute
Folsomia candida = conditions: chronic/long-term; reproduction

SMILES | LR50 (Typhlodromus pyri) | LR50 (Aphidius rhopalosiphi) | LD50 (Rattus norvegicus; acute, oral, mortality) | NOAEL (Rattus norvegicus; reproduction developmental, reproduction) | LC50 (Danio rerio) | NOEC (Oncorhynchus mykiss) | NOAEL (Canidae) | LOAEL (Canidae; clinical signs) | LD50 (Apis mellifera; dermal) | LD50 (Apis mellifera; oral, unspecified) | LC50 (Daphnia magna; acute, duration: 96 hours, mortality) | NOEC (Daphnia magna; chronic/long-term, duration: 21 days) | NOEC (Landoltia sp.) | NOEC (Tagia sp.; acute) | LC50 (Tagia sp.; acute, mortality) | NOEC (Folsomia candida) | NOEC (Tagia sp.; chronic/long-term, duration: 56 days)
CCc1cccc(C)c1N(COC(C)C)C(=O)CCl [Propisochlor] | 1500 g/ha | 20300 g/ha | 1920 mg/kg | 10 mg/kg-day | 0.93 µg/mL (≈ 3.28 µM) | 0.18 mg/L | 5 mg/kg-day | 5 mg/kg-day | > 100 µg/piece | > 111 µg/piece | 4.46 µg/mL (≈ 15.7 µM) | 0.93 mg/L | 21 µg/L | 62.5 mg/kg | 248 mg/kg | – | –
CCc1cccc(C)c1NC(=O)CS(=O)(=O)O [2-(2-ethyl-6-methylanilino)-2-oxoethane-1-sulfonic acid] | – | – | – | – | – | – | – | – | – | – | – | – | – | – | – | > 1000 mg/kg | 3.5 mg/kg
CCc1cccc(C)c1N(COC(C)C)C(=O)C(=O)O | – | – | – | – | – | – | – | – | – | – | – | – | – | – | – | > 1000 mg/kg | –
